Paper PMC10410819, “Potential antihypertensive activity of novel peptides from green basil leaves” (BMC Complementary Medicine and Therapies, 2023)
Values belong to the molecule of their own block, whether it stands above or below them. Residues, ends and D or L forms follow the SMILES beside them. No end group written: not given here.

Key:
[1] = test system: L-NAME-treated male Wistar rats; experiment: Serum lipid profile, glucose, kidney and liver function and ORAC in L-NAME-treated rats; assay type: in vivo, rat; settings: mean, 3 weeks oral gavage, lisinopril 10 mg/kg BW/day, peptides 30 mg/kg BW/day, n = 5
Experimental: (§1) After 1 week of acclimation, 25 male Wistar rats were separated randomly into two groups of control rat (NC; n = 5) with distilled water and L-NAME-treated rat (n = 20). At this step, distilled water was orally gavaged to NC rat at 1 mL/100 g BW. L-NAME at a final concentration of 40 mg/kg BW in 1 mL distilled water was orally gavage to induce hypertension in rat at a dose of 40 mg/kg BW for 3 weeks. Thereafter, L-NAME treated rats were randomly classified into the following four groups: L-NAME untreated rat (HT; n = 5); L-NAME + lisinopril rat (HTD; n = 5); L-NAME + peptide 1 at 30 mg/kg rat (HTP1; n = 5); and L-NAME + peptide 2 at 30 mg/kg rat (HTP2; n = 5); for the remaining 3 weeks. NC (n = 5) was still orally gavaged with distilled water. The peptides were diluted in distilled water to obtain a final concentration of 30 mg/1 mL and immediately gavaged to rat at a dose of 30 mg/kg BW/day). Lisinopril was diluted in distilled water to obtain a final concentration of 10 mg/1 mL and immediately orally gavaged to rat at a dose of 10 mg/kg BW/day. At the end of the experiment, each rat was fasted for approximately 12–16 h and euthanized with CO2 inhalation. […] The separated serum was collected and preserved at − 80 °C until further analysis. Then, the liver, heart, spleen, and kidneys were collected, trimmed, washed with normal saline, wiped with filter paper, and weighed.
One thousand microlite of serum was used for measuring the lipid profiles, including total cholesterol, triglyceride (TG), low-density lipoprotein (LDL)-cholesterol (C), high-density lipoprotein (HDL)-C, glucose levels, kidney (blood urea nitrogen and creatinine concentrations) and liver function [alanine aminotransaminase (ALT), aspartate transaminase (AST), and alkaline phosphatase ([…])] parameters using the Cobas 6800/8800 systems (Roche Group, Switzerland). ORAC in rat serum was measured with a fluorescent microplate reader at Ex/Em = 480/520 nm, as previously mentioned.

[2] = test system: L-NAME-treated male Wistar rats; experiment: Serum nitrite/nitrate in L-NAME-treated rats; assay type: in vivo, rat; settings: mean ± standard error; 3 weeks oral gavage; lisinopril 10 mg/kg, peptide 30 mg/kg BW/day
Experimental: as §1
(§2) The levels of nitrite and nitrate, which are metabolites of nitric oxide (NO), were measured using 50 µl of rat serum utilizing the calorimetric method (Nitrite/nitrate Kit, Sigma-Aldrich, 2 Science Park Dr, SG), according to company protocol. Angiotensin II peptide levels were quantified by using EIA kits (Angiotensin II EIA, Sigma-Aldrich, MO, USA), as per the manufacturer’s instructions).

[3] = test system: L-NAME-treated male Wistar rats; experiment: Serum angiotensin II peptide (EIA) in L-NAME-treated rats; assay type: in vivo, rat; settings: median (interquartile range); 3 weeks oral gavage; lisinopril 10 mg/kg, peptides 30 mg/kg BW/day
Experimental: After 1 week of acclimation, 25 male Wistar rats were separated randomly into two groups of control rat (NC; n = 5) with distilled water and L-NAME-treated rat (n = 20). At this step, distilled water was orally gavaged to NC rat at 1 mL/100 g BW. L-NAME at a final concentration of 40 mg/kg BW in 1 mL distilled water was orally gavage to induce hypertension in rat at a dose of 40 mg/kg BW for 3 weeks. Thereafter, L-NAME treated rats were randomly classified into the following four groups: L-NAME untreated rat (HT; n = 5); L-NAME + lisinopril rat (HTD; n = 5); L-NAME + peptide 1 at 30 mg/kg rat (HTP1; n = 5); and L-NAME + peptide 2 at 30 mg/kg rat (HTP2; n = 5); for the remaining 3 weeks. NC (n = 5) was still orally gavaged with distilled water. The peptides were diluted in distilled water to obtain a final concentration of 30 mg/1 mL and immediately gavaged to rat at a dose of 30 mg/kg BW/day). […]
as §2

[4] = test system: L-NAME-treated male Wistar rats; experiment: Body weight of L-NAME-treated rats; assay type: in vivo, rat; settings: vs L-NAME-treated rats; 3 weeks treatment
Experimental: as §1

[5] = test system: L-NAME-treated male Wistar rats; experiment: Organ weights of L-NAME-treated rats; assay type: in vivo, rat; settings: vs NC group; after 3 weeks treatment
Experimental: as §1

[6] = test system: L-NAME-treated male Wistar rats; experiment: Platelet count and white blood cell levels of L-NAME-treated rats; assay type: in vivo, rat; settings: effect of treatment in the L-NAME treated group; 3 weeks
Experimental: as §1

ACE = target: T1, ACE (Homo sapiens, UniProt P12821); experiment: ACE inhibitory activity assay kit; assay type: biochemical; settings: synthetic peptides; captopril positive control; read-out: IC50 ACE inhibition
T1 construct: purchased Dojindo Molecular Technology Inc., Kumamoto, Japan
Experimental: ACE inhibitory activity assay kit (Dojindo Molecular Technology Inc., Kumamoto, Japan) was used for the measurement of ACE inhibition in proteins derived from basil leaves before and after digestion according to the company manual. Briefly, 10 µl of each sample, substrate buffer, and enzyme mixture were mixed and incubated in 96-well plate at 37 °C for 1 h before measuring ACE inhibition at 450 nm of absorption (A). The ACE inhibitory activity was calculated and calculated as follows: inhibitory activity (%) = [(Awithout sample − Awith sample)/(Awithout sample − Ablank)] × 100.

[7] = target: Angiotensin-converting enzyme (UniProt P12821)
Angiotensin-converting enzyme, sequence (P12821 30-1256): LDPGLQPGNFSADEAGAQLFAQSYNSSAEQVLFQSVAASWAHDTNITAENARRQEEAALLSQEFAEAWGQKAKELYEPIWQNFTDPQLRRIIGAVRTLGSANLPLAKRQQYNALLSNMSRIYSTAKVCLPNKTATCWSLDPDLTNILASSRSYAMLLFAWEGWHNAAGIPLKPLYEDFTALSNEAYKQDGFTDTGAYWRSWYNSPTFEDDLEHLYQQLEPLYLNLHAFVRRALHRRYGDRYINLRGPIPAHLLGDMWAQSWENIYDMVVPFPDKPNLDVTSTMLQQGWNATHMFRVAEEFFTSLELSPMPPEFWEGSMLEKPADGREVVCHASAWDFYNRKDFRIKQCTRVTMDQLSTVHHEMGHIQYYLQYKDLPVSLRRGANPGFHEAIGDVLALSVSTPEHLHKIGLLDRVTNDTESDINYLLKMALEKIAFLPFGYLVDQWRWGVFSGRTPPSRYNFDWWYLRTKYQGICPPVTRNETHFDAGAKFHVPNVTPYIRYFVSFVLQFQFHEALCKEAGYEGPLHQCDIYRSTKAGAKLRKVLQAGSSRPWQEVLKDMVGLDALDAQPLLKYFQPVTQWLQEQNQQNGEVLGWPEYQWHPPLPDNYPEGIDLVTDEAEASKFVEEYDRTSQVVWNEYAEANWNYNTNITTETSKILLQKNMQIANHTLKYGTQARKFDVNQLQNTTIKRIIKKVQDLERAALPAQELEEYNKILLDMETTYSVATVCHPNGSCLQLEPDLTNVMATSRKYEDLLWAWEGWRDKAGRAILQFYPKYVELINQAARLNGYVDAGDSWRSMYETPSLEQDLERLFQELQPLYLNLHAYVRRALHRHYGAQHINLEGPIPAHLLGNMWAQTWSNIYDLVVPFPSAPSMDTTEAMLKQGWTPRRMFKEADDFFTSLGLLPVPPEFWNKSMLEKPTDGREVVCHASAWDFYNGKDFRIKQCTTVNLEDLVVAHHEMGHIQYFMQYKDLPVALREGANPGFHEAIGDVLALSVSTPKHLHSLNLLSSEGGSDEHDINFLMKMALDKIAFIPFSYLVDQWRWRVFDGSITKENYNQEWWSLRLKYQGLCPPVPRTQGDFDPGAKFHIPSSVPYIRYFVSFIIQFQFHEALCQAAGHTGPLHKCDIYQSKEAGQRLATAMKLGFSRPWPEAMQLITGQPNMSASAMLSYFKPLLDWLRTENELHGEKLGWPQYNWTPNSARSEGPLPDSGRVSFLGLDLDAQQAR

T1 sequence (P12821 30-1306, species assumed): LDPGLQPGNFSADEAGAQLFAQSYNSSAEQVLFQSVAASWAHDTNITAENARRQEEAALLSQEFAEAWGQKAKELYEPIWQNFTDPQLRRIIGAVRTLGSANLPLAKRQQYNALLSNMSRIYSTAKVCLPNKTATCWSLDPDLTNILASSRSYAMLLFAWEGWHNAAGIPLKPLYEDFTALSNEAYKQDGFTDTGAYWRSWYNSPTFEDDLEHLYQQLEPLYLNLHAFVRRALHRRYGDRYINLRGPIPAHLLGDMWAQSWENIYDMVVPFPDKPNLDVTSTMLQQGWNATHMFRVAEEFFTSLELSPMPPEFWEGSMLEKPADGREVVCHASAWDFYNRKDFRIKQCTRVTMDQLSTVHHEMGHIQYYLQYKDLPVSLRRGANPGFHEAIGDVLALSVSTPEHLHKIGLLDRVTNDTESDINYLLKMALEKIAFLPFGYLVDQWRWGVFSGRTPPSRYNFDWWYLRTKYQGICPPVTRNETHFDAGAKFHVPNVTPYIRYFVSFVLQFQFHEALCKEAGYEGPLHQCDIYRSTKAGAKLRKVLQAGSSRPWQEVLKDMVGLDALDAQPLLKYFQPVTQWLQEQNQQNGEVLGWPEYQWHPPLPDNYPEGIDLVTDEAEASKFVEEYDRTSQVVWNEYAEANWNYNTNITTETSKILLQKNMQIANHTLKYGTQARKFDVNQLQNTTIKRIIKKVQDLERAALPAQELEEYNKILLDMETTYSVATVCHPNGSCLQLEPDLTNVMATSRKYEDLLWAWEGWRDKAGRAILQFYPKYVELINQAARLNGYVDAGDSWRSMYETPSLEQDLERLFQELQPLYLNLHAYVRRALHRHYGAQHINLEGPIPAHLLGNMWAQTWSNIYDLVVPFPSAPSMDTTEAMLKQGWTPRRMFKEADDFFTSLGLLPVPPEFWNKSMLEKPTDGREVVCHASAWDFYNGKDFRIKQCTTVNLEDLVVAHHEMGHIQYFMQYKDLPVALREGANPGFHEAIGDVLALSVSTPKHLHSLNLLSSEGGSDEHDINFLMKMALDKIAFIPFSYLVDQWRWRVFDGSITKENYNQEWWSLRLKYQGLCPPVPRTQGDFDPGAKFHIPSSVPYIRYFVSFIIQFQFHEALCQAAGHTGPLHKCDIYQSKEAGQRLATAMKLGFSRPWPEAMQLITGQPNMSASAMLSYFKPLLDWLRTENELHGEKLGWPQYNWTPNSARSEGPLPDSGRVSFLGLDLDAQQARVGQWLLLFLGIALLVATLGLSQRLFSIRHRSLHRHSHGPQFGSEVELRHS

Molecule: NCCCC[C@H](N[C@@H](CCc1ccccc1)C(=O)O)C(=O)N1CCC[C@H]1C(=O)O [Lisinopril]
ORAC ([1]; rat serum): 0.19 µmol TE/dl | Cho/HDL ([1]; serum ratio): 2.69 | LDL/HDL ([1]; serum ratio): 0.22 | ALP ([1]; serum): 129.75 U/L | ALT ([1]; serum): 41.50 U/L | AST ([1]; serum): 67.75 U/L | BUN ([1]; serum): 19.83 mg/dL | Chol ([1]; serum): 86.25 mg/dL | Glucose ([1]; serum): 263.00 mg/dL | HDL ([1]; serum): 32.00 mg/dL | LDL ([1]; serum): 7.00 mg/dL | Tri ([1]; serum): 179.25 mg/dL | VLDL ([1]; serum): 35.75 mg/dL | serum concentration of nitrate [2]: 15.05 ± 1.95 ng/µL | serum concentration of nitrite [2]: 16.17 ± 2.99 ng/µL | serum concentration of total nitrate and nitrite (NOx) [2]: 31.22 ± 4.94 ng/µL | serum concentration of AGE II [3]: 5.19 (4.82) pg/mL | effect on rat BWs [4]: not significantly affected | weight of the livers [5]: significantly lower | platelet count and white blood cell levels [6]: did not affect

Molecule: HCGDGDAPY [His-Cys-Gly-Asp-Gly-Asp-Ala-Pro-Tyr]
IC50 (ACE): 103 µM

Molecule: EGSGKGVR [Glu-Gly-Ser-Gly-Lys-Gly-Val-Arg]
IC50 (ACE): 87.2 µM

Molecule: DSVSASP [Asp-Ser-Val-Ser-Ala-Ser-Pro]
IC50 (ACE): 117 µM | ALP ([1]; serum): 159.00 U/L | ALT ([1]; serum): 38.50 U/L | AST ([1]; serum): 74.00 U/L | BUN ([1]; serum): 20.33 mg/dL | weight of the livers [5]: significantly lower

Molecule: N[C@@H](Cc1ccc(O)cc1)C(=O)N[C@@H](CO)C(=O)N[C@@H](Cc1ccccc1)C(=O)O [Tyr-Ser-Phe] (H-Tyr-Ser-Phe-OH; N-terminus and C-terminus assumed)
IC50 (ACE): 44.2 µM

Molecule: PTTKTNVPPHF [Pro-Thr-Thr-Lys-Thr-Asn-Val-Pro-Pro-His-Phe]
IC50 (µM) ACE inhibition (ACE inhibitory activity assay kit, absorbance at 450 nM) [7]: 119 µM

Molecule: DLSSAP [Asp-Leu-Ser-Ser-Ala-Pro]
IC50 (µM) ACE inhibition (ACE inhibitory activity assay kit, absorbance at 450 nM) [7]: 4.75 µM

Molecule: LDSKHEAP [Leu-Asp-Ser-Lys-His-Glu-Ala-Pro]
IC50 (µM) ACE inhibition (ACE inhibitory activity assay kit, absorbance at 450 nM) [7]: 121 µM

Molecule: HVLSA [His-Val-Leu-Ser-Ala]
IC50 (µM) ACE inhibition (ACE inhibitory activity assay kit, absorbance at 450 nM) [7]: 10 µM

Second part, led by results:

IC50 (ACE): 119 µM
Molecule: PTTKTNVPPHF [Pro-Thr-Thr-Lys-Thr-Asn-Val-Pro-Pro-His-Phe]

IC50 (ACE): 4.75 µM | ALP ([1]; serum): 135.00 U/L | BUN ([1]; serum): 19.70 mg/dL | weight of the livers [5]: significantly lower
Molecule: DLSSAP [Asp-Leu-Ser-Ser-Ala-Pro]
ALT ([1]; serum): 31.50 U/L | AST ([1]; serum): 67.00 U/L

IC50 (ACE): 10 µM
Molecule: HVLSA [His-Val-Leu-Ser-Ala]

IC50 (ACE): 121 µM
Molecule: LDSKHEAP [Leu-Asp-Ser-Lys-His-Glu-Ala-Pro]

IC50 (µM) ACE inhibition (ACE inhibitory activity assay kit, absorbance at 450 nM) [7]: 44.2 µM
Molecule: Tyr-Ser-Phe (peptide)

IC50 (µM) ACE inhibition (ACE inhibitory activity assay kit, absorbance at 450 nM) [7]: 87.2 µM
Molecule: EGSGKGVR [Glu-Gly-Ser-Gly-Lys-Gly-Val-Arg]

IC50 (µM) ACE inhibition (ACE inhibitory activity assay kit, absorbance at 450 nM) [7]: 103 µM
Molecule: HCGDGDAPY [His-Cys-Gly-Asp-Gly-Asp-Ala-Pro-Tyr]

IC50 (µM) ACE inhibition (ACE inhibitory activity assay kit, absorbance at 450 nM) [7]: 117 µM
Molecule: DSVSASP [Asp-Ser-Val-Ser-Ala-Ser-Pro]
